Measured values from patent US20060014677A1, “Method for maximizing efficacy and predicting and minimizing toxicity of calcineurin inhibitor compounds” (Isotechnika International Inc., priority 2004, published 2006).
Converted amounts (≈) assume the structure as drawn.

Key:
calcineurin = assay: Calcineurin inhibition assay on whole blood lysates, PK-PD sigmoid Emax model (Study A, phase II); format: in vivo, human; conditions: FIG. 4A/4B; peak (C2) concentration vs % CNI
Description: At weeks 1, 6, and 12, serial whole blood samples were drawn and drug concentrations were determined. PK and PD were evaluated using standard non-compartmental analysis and a calcineurin inhibition assay. […] Whole blood lysates were evaluated for their ability to dephosphorylate a ^32P-labelled 19 amino acid peptide substrate in the presence of okadaic acid, a phosphatast type 1 and 2 inhibitor. Background phosphatase 2C activity (CsA and okadaic acid resistant activity) was determined and subtracted from each sample, with the assay performed in the presence and absence of excess added CsA. The remaining phosphatase activity was taken as calcineurin activity.
(§1) A direct PK-PD correlation was performed using a sigmoid Emax model.
AIC is the Akaike Information Criterion. It is a dimensionless “goodness of fit” parameter that is a modification of an ‘F-test.’ The lower the AIC number the better the fit. This relationship was constructed using concentrations from trough (C0) through hour 4 (C4).

psoriasis patients = assay: Psoriasis Area and Severity Index (PASI) vs trough concentration in psoriasis patients; format: in vivo, human; conditions: FIG. 2
From the text: While % CNI is used in FIG. 1 to illustrate drug efficacy, there are other ways to measure transplant drug efficacy or calcineurin inhibitor drug efficacy. For example, in animal models, graft survival in transplantation is an indication of immunosuppressive drug efficacy. However, graft survival is an experimental model that takes a long time to measure and is complicated in that grafts may not survive for reasons other than the effective concentration of immunosuppressive agents. For example, prolonged cold ischemic time, donor/recipient mismatch or surgical technique may affect outcome of a graft. In human transplant patients, episodes of rejection may be indicators of failure of a calcineurin inhibitor. Other markers may be patient survival, in the case of transplant. For Psoriasis, a decrease in Psoriasis Area and Severity Index (PASI) score is an indication of effective treatment of psoriasis. A 75% reduction in PASI score is commonly held as a successful therapy.
Using PASI score as another indicator of drug efficacy, FIG. 2 illustrates that as drug concentration increases, the PASI score, an indicator of psoriasis severity, decreases. […] EC50 is an indication of the potency of the drug. […] FIG. 2 illustrates the relationship between trough drug concentration (C0) and PASI score on day 42 of treatment where E equals effect, in this case measured by PASI score.

clinical = conditions: human, in vivo
Description: (§2) At weeks 1, 6, and 12, serial whole blood samples were drawn and drug concentrations were determined. PK and PD were evaluated using standard non-compartmental analysis and a calcineurin inhibition assay. […] Whole blood lysates were evaluated for their ability to dephosphorylate a ^32P-labelled 19 amino acid peptide substrate in the presence of okadaic acid, a phosphatast type 1 and 2 inhibitor. Background phosphatase 2C activity (CsA and okadaic acid resistant activity) was determined and subtracted from each sample, with the assay performed in the presence and absence of excess added CsA. The remaining phosphatase activity was taken as calcineurin activity. Serum creatinine was measured from blood samples, as a measure of renal toxicity.
as §1
A measurement taken at 8 hours was used as peak concentration in the absence of a C2 measurement in this study. […] Cmin measurement could be a measurement taken at C0 or at C8, whichever measurement gave the lower measurement.
Percent fluctuation (FLU) was calculated as shown in Formula (2): [formula]

[1] = system: stable renal transplant patients; conditions: human, in vivo, 12 week
Description: as §2
This discriminant analysis was performed using SPSS for Windows version 10.1 software available from SPSS Inc.
A measurement taken at 8 hours was used as peak concentration in the absence of a C2 measurement in this study. […] Cmin measurement could be a measurement taken at C0 or at C8, whichever measurement gave the lower measurement. […] Clinical diagnosis of renal toxicity may require an increase of, for example, 50% over baseline.

In the case of `C=C/C=C/C[C@@H](C)[C@@H](O)[C@H]1C(=O)N[C@@H](CC)C(=O)N(C)CC(=O)N(C)[C@@H](CC(C)C)C(=O)N[C@@H](C(C)C)C(=O)N(C)[C@@H](CC(C)C)C(=O)N[C@@H](C)C(=O)N[C@H](C)C(=O)N(C)[C@@H](CC(C)C)C(=O)N(C)[C@@H](CC(C)C)C(=O)N(C)[C@@H](C(C)C)C(=O)N1C` [ISA247], the EC50 (calcineurin) is reported as 161.8+54.5 ng/mL, the “Emax, maximum possible mean PASI” value (psoriasis patients; trough (C0) concentration vs PASI on day 42) is reported as 22.9±7 PAS1 and the EC50 (psoriasis patients; Homo sapiens, 1008 h, read-out: EC50, trough concentration required to achieve a 50% reduction in PASI, trough (C0), day 42 of treatment) is reported as 0.0135 ± 0.0081 µg/mL (≈ 0.0111 µM). The “Cmax, mean” value (clinical) was 159.59 ng/mL, the “t1/2, comparison between the two drugs” value (clinical) was “similar” and the “time to maximum concentration (tmax), comparison between the two drugs” value (clinical) was “similar”. The “C8, mean” value (clinical; 8 h) was 54.327 ng/mL, the concentration at 8 h (clinical; C8, mean) was 37.3 ng/mL and the Cmax (clinical; Cmax, mean) was 188 ng/mL. For the same compound, the “number of patients with normal renal function (actual group membership)” value [1] was 121 and the “number of patients with renal toxicity (actual group membership)” value [1] was 26.
